Measurements as given in patent US20150336985A1, “FUNGICIDAL HETEROCYCLIC COMPOUNDS” (E. I. DU PONT DE NEMOURS AND COMPANY, priority 2012, published 2015).

Legend:
[1] = tested on: Phytophthora infestans; type: in vivo, Phytophthora infestans (on tomato seedlings); settings: 40 ppm; tomato late blight, preventive; rating 100 = 100% disease control, 0 = no disease control relative to the controls
[2] = tested on: Phytophthora infestans; type: in vivo, Phytophthora infestans (on tomato seedlings); settings: 40 ppm; tomato late blight, curative (17 h after inoculation); rating 100 = 100% disease control, 0 = no disease control relative to the controls
[3] = tested on: Plasmopara viticola; assay: Test A: grape downy mildew, curative spray on inoculated grape seedlings, visual disease rating; type: in vivo, Plasmopara viticola (on grape seedlings); settings: 40 ppm, rating 100 = 100% disease control, 0 = no disease control relative to the controls

Cc1cc(C(F)(F)F)nn1CC(=O)N1CCC(c2nc3c(s2)CCC(Cc2c(F)cccc2F)C3=O)CC1 (single isomer, unassigned) [Compound 5, 5-[(2,6-difluorophenyl)methyl]-6,7-dihydro-2-[1-[2-[5-methyl-3-(trifluoromethyl)-1H-pyrazol-1-yl]acetyl]-4-piperidinyl]-4(5H)-benzonthiazolone]
Test B1 rating (disease control) [1]: 100
Test B2 rating (disease control) [2]: 99
Test A rating (disease control) [3]: 99

Cc1cc(C(F)(F)F)nn1CC(=O)N1CCC(c2nc3c(s2)CCC(Cc2c(F)cccc2F)C3=O)CC1 (single isomer, unassigned) [Compound 6, 5-[(2,6-difluorophenyl)methyl]-6,7-dihydro-2-[1-[2-[5-methyl-3-(trifluoromethylene)-1H-pyrazol-1-yl]acetyl]-4-piperidinyl]-4(5H)-benzothiazolone]
Test B1 rating (disease control) [1]: 100
Test B2 rating (disease control) [2]: 78
Test A rating (disease control) [3]: 78

Cc1cc(C(F)(F)F)nn1CC(=O)N1CCC(c2nc3c(s2)CCN(Cc2ccccc2)C3=O)CC1 [Compound 8, 6,7-dihydro-2-[1-[2-[5-methyl-3-(trifluoromethyl)-1H-pyrazol-1-yl]acetyl]-4-piperidinyl]-5-(phenylmethyl)thiazolo[4,5-c]pyridin-4(5H)-one]
Test B1 rating (disease control) [1]: 100
Test B2 rating (disease control) [2]: 99
Test A rating (disease control) [3]: 100
